Data reported in paper PMC10882622, “Cytosolic Delivery of Bioactive Cyclic Peptide Cargo by Spontaneous Membrane Translocating Peptides” (ACS Omega, 2024).
Where “and” joins values, the source holds several entries; their conditions need not be identical. Identical values can stand only once. Numbered stars: 1 amine (or outer) side, 2 acyl side, 3 side chain; on linkers, the order of the positions; unused ones are H or OH. Bridge positions count the residues as written; N and C are the ends. Square brackets hold non-standard residues; d marks the D form. Peptide text beside a SMILES is read from it. I, II: the chains in the order shown. Trp(2-yl) = O=C([C@H](Cc1c([*:3])[nH]c2ccccc12)N[*:1])[*:2]; X1 = O=C1CC([*:1])C(=O)N1CC1CCC(C(=O)[*:2])CC1; Leu(4R-OH,5-OH) = C[C@](O)(CO)C[C@H](N)C(=O)O; cisHyp = O=C(O)[C@@H]1C[C@H](O)CN1

Legend:
[1] = test system: HeLa cells; test: cytotoxicity, cell viability by Alamar Blue; assay type: cell-based, human; details: Alamar Blue fluorescence after 72 h
Description: Validated HeLa human […] cancer cells and HT1080 human epithelial fibrosarcoma cells were obtained from ATCC and were used at a low passage number without modification. All cells were maintained in T75 flasks in an incubator at 37 °C, 5% CO2 in complete media: DMEM containing 10% (%v/v) FBS, glucose, sodium pyruvate, L-glutamine, nonessential amino acids, and antibiotics. Serum-free media (SFM) was prepared in the same fashion as complete media but lacked FBS. Cells were maintained daily with two DPBS washes and replacement of complete media. When ≥90% confluent, cells were passaged using trypsin and seeded into another T75 flask and/or 96-well plates.
(§1) Figure 3 Control experiments. (A) Example in vitro actin depolymerization assay. Depolymerization of pyrene-labeled actin from Cytoskeleton, Inc. was initiated at time zero in the presence of 0–50 μM TP2-S-Ph conjugate. Pyrene excimer fluorescence was excited at 390 nm and monitored at 460 nm over 1 h. (B) Initial depolymerization rates from experiments such as the one shown in Panel A were measured by linear regression and averaged. We show depolymerization rates versus concentration for phalloidin and for the D-TP2-S-Ph conjugate. EC50 values are ∼3 μM for phalloidin and ∼6 μM for D-TP2-S-Ph. (C) Cytotoxicity and hemolysis caused by TP2, phalloidin, and the TP2-S-Ph chimera. Left axis: HeLa cells were incubated with the indicated concentration of compound for 4 h, and cell viability was measured by Alamar Blue fluorescence after 72 h. Right axis: washed human red blood cells were incubated for 1 h, and hemoglobin release was measured.
(§2) To further test for indirect cytotoxicity, we incubated HeLa cells with TP2-S-Ph, TP2 alone, and free phalloidin for 72 h, Figure 3C, and measured cell viability using Alamar Blue.

[2] = test system: HT1080 cells; test: wound-healing scratch (cell migration) assay; assay type: cell-based, human; parameters: cell migration: dose or concentration left out as unconfirmed
Description: A total of 30,000 HT1080 cells were seeded into each well of a 96-well plate in complete media and incubated for 24 h. Cells were washed with DPBS and incubated in serum-free media (SFM) for the next 48 h. Treatment with TP1/2/3-S-Ph, cytochalasin D, or media control, containing DMSO equal to treatment (% v/v), was done for four h at 37 °C. Cells were washed three times with DPBS and then scratched with 10 μL pipet tips on a multichannel pipettor. Evaluation of area closure was performed by phase contrast microscopic imaging of each well at 4× magnification, hourly, for 24 h with the Biotek Cytation 5 cell imaging reader and the BioSpa 8 automated incubator. Only the linear portion of the time course, up to 8 h, was used for analysis. For each condition studied, the scratch assay was performed in at least 6 biologically independent experiments, and each experiment consisted of 2–3 technical replicates.
ImageJ was used to trace the perimeter of each scratch. The gap area (GA) of each scratch was generated with ImageJ via batch processing with a lower threshold of 0 and an upper threshold of 60. The gap area for treatment groups was averaged and relativized as follows: [drawing 1]
Mean relative GA was plotted over time, and the absolute value of the slope from 1 to 8 h for each treatment was determined. Lastly, slopes were normalized against SFM controls.
We performed 4 h incubation in the presence of peptide chimeras and then washed the cells with PBS three times prior to conducting the scratch-closing measurements. This approach enabled us to assay only for rapid and nonreversible delivery of phalloidin cargo to the cytosol of cells by the peptides. The control compound cytochalasin D needed to be maintained at the noted concentration throughout the entire incubation time because, unlike the peptides, it is readily washed out of cells and has no effect if incubated for 4 h and washed away.
Figure 4 Example scratch assay. For this assay, a total of 30,000 HT1080 cells were seeded into each well of a 96-well cell culture plate in complete media and incubated for 24 h. Cells were washed with DPBS and incubated in serum-free media (SFM) for the next 48 h. Treatment with serum-free media, cytochalasin D, or peptide was done for 4 h at 37 °C. Cells were washed three times with DPBS and then scratched with 10 μL pipet tips on a multichannel pipettor. Cytochalasin D was replaced at the intended concentration, but the peptide was not. Evaluation of wound area was performed by phase contrast microscopic imaging of each well at 4× magnification with a BioTek Cytation 5 cell imaging reader and the BioSpa 8 automated incubator. Here, we show example images from a typical scratch assay taken 0, 1, 3, and 6 h after scratching a channel in the middle of the surface. Red lines show the edge of the wound identified by ImageJ and were used to calculate the total wound area from each image.
Migration rates were normalized to that of the NT/SFM group, which was always the fastest closing group. Each experiment was repeated in at least 6 biologically independent experiments, and each biologically independent experiment was repeated in 2–3 technical replicates.

[3] = test system: human red blood cells; test: hemolysis, hemoglobin release; assay type: cell-based; details: washed human red blood cells, incubated 1 h
Description: as §1, §2

[4] = target: T1, pyrene-labeled actin (Oryctolagus cuniculus, UniProt P68135); test: in vitro actin depolymerization assay (pyrene excimer fluorescence, Cytoskeleton kit); assay type: biochemical; details: polymerized pyrene-actin, 0–50 μM, rates by linear regression, normalized to buffer-only control, averaged; read-out: EC50 for inhibition of actin depolymerization (initial depolymerization rate vs concentration)
T1 construct: purchased Cytoskeleton, Inc
Description: An actin polymerization biochemistry kit (Cytoskeleton, Inc.) was used to assay the bioactivity of the phalloidin conjugates. All experiments were performed in a 96-well format and read on a fluorescent plate reader (Biotek Synergy II). Actin-pyrene monomers formed filamentous actin by using the supplied polymerization buffer, which caused pyrene excimer fluorescence (excitation 365 nm and emission 407 nm). Serial dilutions of phalloidin or TP2-SMCC-Ph were added to the filamentous actin-pyrene as well as a no peptide control. A supplied depolymerization buffer was then added to samples, and loss of fluorescence was monitored on the plate reader as a function of time. […] Calculated rates are normalized to the buffer-only controls.
The 7-position of natural phalloidin is a 4,5-dihydroxy leucine residue. […] Pyrene excimer fluorescence is measured such that depolymerization will drive a decrease in intensity. Polymerized actin, with added phalloidin or TP2-SMCC-Ph, is triggered to depolymerize at time zero, and the rate of excimer decrease is measured.
Figure 3 Control experiments. […] Pyrene excimer fluorescence was excited at 390 nm and monitored at 460 nm over 1 h. (B) Initial depolymerization rates from experiments such as the one shown in Panel A were measured by linear regression and averaged. […] Right axis: washed human red blood cells were incubated for 1 h, and hemoglobin release was measured.

[5] = 100 nM continuous, HT1080, serum-free media

Structure (SMILES) | toxicity to HeLa cells (cell viability) ([1]; 0–25 μM concentration range) | toxicity to HeLa cells (cell viability) ([1]; at 50 μM) | size of effect on cell migration compared with cytochalasin D control ([2]; 25 μM, applied for 4 h then washed off, control 100 nM continuous CD) | effect on migration (mean wound closure rate) compared to no treatment, one-way ANOVA ([2]; at 25, 12.5, 6.3, and 3.1 μM, 4 h incubation then washed, slope 1–8 h, at least 6 independent experiments) | hemolysis of red blood cells [3] | EC50 [4] | cell migration over the first 6 h [2, 5] | inhibition of cell movement [2, 5] | effect on cell migration after wash-out ([2]; incubated for 4 h and washed away) | cell migration ([2]; treatment, continuous, HT1080) | cytotoxic effects on HeLa cells (cell viability) ([1]; up to 1 mM)
CC[C@@H](C)[C@@H](NC(=O)[C@@H](CC(C)C)NC(=O)[C@H]1CCCN1)C(=O)N[C@H](Cc1ccc(O)cc1)C(=O)N[C@H](CC(C)C)C(=O)N[C@H](CCCNC(=N)N)C(=O)N[C@H](CC(C)C)C(=O)N[C@H](CC(C)C)C(=O)N[C@H](CCCNC(=N)N)C(=O)NCC(=O)N[C@H](CCC(N)=O)C(=O)N[C@H](Cc1c[nH]c2ccccc12)C(=O)N[C@H](CSC1CC(=O)N(CC2CCC(C(=O)NCCCC[C@@H]3NC(=O)[C@@H]4Cc5c([nH]c6ccccc56)SC[C@H](NC(=O)[C@@H]([C@H](C)O)NC(=O)[C@H](C)NC3=O)C(=O)N3C[C@@H](O)C[C@H]3C(=O)N[C@@H](C)C(=O)N4)CC2)C1=O)C(N)=O (stereo partly drawn) [TP2-S-Ph] (I: H-[dP][dL][dI][dY][dL][dR][dL][dL][dR]G[dQ][dW][dC]-NH2 / II: cyclo([cisHyp]A[Trp(2-yl)]KA[dT]C); linker I:13-II:4 via X1; thioether II:3-II:7) | Neither the conjugated TP2 nor TP2 alone showed any toxicity | the conjugate did not | at least as large as the CD control | significant effects | no hemolytic activity | < 5 µM and ~6 µM |  |  |  |  | 
C=C1[C@@H](C)[C@H]2[C@H](Cc3ccccc3)NC(=O)[C@]23[C@H](OC(C)=O)/C=C/[C@@](C)(O)C(=O)[C@@H](C)C/C=C/[C@H]3[C@@H]1O [cytochalasin D] |  |  |  |  |  |  | little to no migration | inhibited cell movement completely | no effect | some migration | 
C[C@@H]1NC(=O)[C@H](C[C@@](C)(O)CO)NC(=O)[C@@H]2Cc3c([nH]c4ccccc34)SC[C@H](NC(=O)[C@@H]([C@H](C)O)NC1=O)C(=O)N1C[C@@H](O)C[C@H]1C(=O)N[C@@H](C)C(=O)N2 [phalloidin] (cyclo(A[dT]C[cisHyp]A[Trp(2-yl)][Leu(4R-OH,5-OH)]); thioether 3-6 (inferred); ring closure inferred) |  |  |  |  |  | < 5 µM and ~3 µM |  |  |  |  | no cytotoxic effects
